The target in this test is T1, CCR2 (Homo sapiens, UniProt P41597).
T1 sequence (P41597 1-360 isoform P41597-2): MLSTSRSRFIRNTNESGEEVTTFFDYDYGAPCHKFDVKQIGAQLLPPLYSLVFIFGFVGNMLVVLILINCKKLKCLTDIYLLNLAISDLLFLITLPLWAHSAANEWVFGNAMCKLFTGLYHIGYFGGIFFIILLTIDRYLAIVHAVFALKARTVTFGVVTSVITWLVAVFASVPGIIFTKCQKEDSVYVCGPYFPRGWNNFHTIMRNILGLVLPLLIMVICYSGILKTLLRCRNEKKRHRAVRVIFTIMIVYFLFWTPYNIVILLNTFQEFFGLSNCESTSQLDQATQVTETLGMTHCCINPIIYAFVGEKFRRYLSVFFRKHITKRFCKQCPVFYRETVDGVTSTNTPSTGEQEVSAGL
Nature of the test: MCP-1 Receptor Binding Assay in THP-1 Cells. The settings on record: for pIC50: THP-1 cells, 0.5 nM 125I labeled MCP-1, 2 hours at 30° C., read-out: Mean Ligand Binding IC50 (inhibition of MCP-1 binding to CCR2); for inhibition at 25 µM: MCP-1 binding to CCR2, test concentration of 25 μM, unless indicated otherwise, read-out: % Inhibition Ligand Binding. An outline of the steps:
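THP-1 cells; bound radioactivity collected on filter plates and counted by scintillation. Buffer-only blanks subtracted, drug-treated values compared with vehicle; nonspecific binding defined with 1 μM unlabeled MCP-1.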

pIC50: −log10 of the molar value.

As usually defined, the pIC50 is the negative decadic logarithm of the IC50, by convention in mol/L. As to `C[N+](C)(Cc1ccc(NC(=O)c2ccc3ccc(Br)cc3c2)cc1)C1CCOCC1` [Cpd 93, {4-[(7-bromo-naphthalene-2-carbonyl)-amino]-benzyl}-dimethyl-(tetrahydro-pyran-4-yl)-ammonium iodide], the pIC50 is 6.05.

Turning to `C[N+](C)(Cc1ccc(NC(=O)c2ccc3ccc(Br)cc3c2)cc1)C1CCCCC1` [Cpd 94, {4-[(7-bromo-naphthalene-2-carbonyl)-amino]-benzyl}-cyclohexyl-dimethyl-ammonium iodide], the pIC50 is 5.89.

Regarding `C[N+](C)(Cc1ccc(NC(=O)C2=Cc3cc(Br)ccc3OC2)cc1)C1CCOCC1` [Cpd 95, {4-[(6-bromo-2H-chromene-3-carbonyl)-amino]-benzyl}-dimethyl-(tetrahydro-pyran-4-yl)-ammonium iodide], the pIC50 is 6.74.

As for `C[N+](C)(Cc1ccc(NC(=O)C2=Cc3cc(Cl)ccc3OC2)cc1)C1CCOCC1` [Cpd 96, {4-[(6-chloro-2H-chromene-3-carbonyl)-amino]-benzyl}-dimethyl-(tetrahydro-pyran-4-yl)-ammonium iodide], the pIC50 was 6.96.

For `C[N+](C)(Cc1ccc(NC(=O)C2=Cc3cc(Br)ccc3OC2)cc1)C1CCCCC1` [Cpd 97, {4-[(6-bromo-2H-chromene-3-carbonyl)-amino]-benzyl}-cyclohexyl-dimethyl-ammonium iodide], the pIC50 is 6.35.

In the case of `C[N+](C)(Cc1ccc(NC(=O)C2=Cc3cc(Cl)ccc3OC2)cc1)C1CCCCC1` [Cpd 98, {4-[(6-chloro-2H-chromene-3-carbonyl)-amino]-benzyl}-cyclohexyl-dimethyl-ammonium iodide], the pIC50 is 6.57.

In general, inhibition refers to the drop in the measured response relative to a control, in per cent. For the compound `C[N+](C)(Cc1ccc(CNC(=O)C2=Cc3cc(Br)ccc3OC2)cc1)C1CCOCC1` [Cpd 99, (4-{[(6-bromo-2H-chromene-3-carbonyl)-amino]-methyl}-benzyl)-dimethyl-(tetrahydro-pyran-4-yl)-ammonium iodide], the inhibition at 25 µM came out at 34%.

Consider `C[N+](C)(Cc1ccc(NC(=O)C2=Cc3c(Cl)cc(Cl)cc3OC2)cc1)C1CCOCC1` [Cpd 100, {4-[(5,7-dichloro-2H-chromene-3-carbonyl)-amino]-benzyl}-dimethyl-(tetrahydro-pyran-4-yl)-ammonium iodide], for which the pIC50 was 6.28.

`C[N+](C)(Cc1ccc(NC(=O)C2=Cc3c(Cl)cc(Cl)cc3OC2)cc1)C1CCCCC1` [Cpd 101, cyclohexyl-{4-[(5,7-dichloro-2H-chromene-3-carbonyl)-amino]-benzyl}-dimethyl-ammonium iodide]: the pIC50 was 5.96.

Regarding `C[N+](C)(Cc1ccc(NC(=O)C2=Cc3cc(Cl)cc(Cl)c3OC2)cc1)C1CCOCC1` [Cpd 102, {4-[(6,8-dichloro-2H-chromene-3-carbonyl)-amino]-benzyl}-dimethyl-(tetrahydro-pyran-4-yl)-ammonium iodide], the pIC50 was 6.72.

For `Cc1ccc2c(c1)C=C(C(=O)Nc1ccc(C[N+](C)(C)C3CCOCC3)cc1)CO2` [Cpd 103, dimethyl-{4-[(6-methyl-2H-chromene-3-carbonyl)-amino]-benzyl}-(tetrahydro-pyran-4-yl)-ammonium iodide], the pIC50 is 6.09.

Regarding `COc1ccc2c(c1)C=C(C(=O)Nc1ccc(C[N+](C)(C)C3CCOCC3)cc1)CO2` [Cpd 104, {4-[(6-methoxy-2H-chromene-3-carbonyl)-amino]-benzyl}-dimethyl-(tetrahydro-pyran-4-yl)-ammonium iodide], the pIC50 was 5.72.

For the compound `Cc1ccc2c(c1)C=C(C(=O)Nc1ccc(C[N+](C)(C)C3CCCCC3)cc1)CO2` [Cpd 105, cyclohexyl-dimethyl-{4-[(6-methyl-2H-chromene-3-carbonyl)-amino]-benzyl}-ammonium iodide], the pIC50 is 6.49.

Regarding `COc1ccc2c(c1)C=C(C(=O)Nc1ccc(C[N+](C)(C)C3CCCCC3)cc1)CO2` [Cpd 106, cyclohexyl-{4-[(6-methoxy-2H-chromene-3-carbonyl)-amino]-benzyl}-dimethyl-ammonium iodide], the pIC50 is 5.96.

As to `C[N+](C)(Cc1ccc(NC(=O)C2=Cc3cc(Cl)cc(Cl)c3OC2)cc1)C1CCCCC1` [Cpd 107, cyclohexyl-{4-[(6,8-dichloro-2H-chromene-3-carbonyl)-amino]-benzyl}-dimethyl-ammonium iodide], the pIC50 was 6.77.

On to `C[N+](C)(Cc1ccc(NC(=O)C2=Cc3cc(Cl)ccc3OC2)cc1)C[C@H]1CCCO1` [Cpd 108, (2R)-{4-[(6-chloro-2H-chromene-3-carbonyl)-amino]-benzyl}-dimethyl-(tetrahydro-furan-2-ylmethyl)-ammonium iodide], for which the pIC50 was 5.51.

Consider `C[N+](C)(Cc1ccc(NC(=O)C2=Cc3cc(Cl)ccc3OC2)cc1)C[C@@H]1CCCO1` [Cpd 109, (2S)-{4-[(6-chloro-2H-chromene-3-carbonyl)-amino]-benzyl}-dimethyl-(tetrahydro-furan-2-ylmethyl)-ammonium iodide], for which the pIC50 was 5.28.

Regarding `C[N+](C)(Cc1ccc(NC(=O)C2=Cc3cc(Cl)ccc3OC2)cc1)[C@H]1CC2CCC1C2` (stereo partly drawn) [Cpd 110, (2S)-bicyclo[2.2.1]hept-2-yl-{4-[(6-chloro-2H-chromene-3-carbonyl)-amino]-benzyl}-dimethyl-ammonium iodide], the pIC50 is 6.49.

On to `C[N+](C)(Cc1ccc(NC(=O)C2=Cc3cc(Cl)cc(Cl)c3OC2)cc1)C1CC2CCC1C2` (centres unmarked) [Cpd 111, bicyclo[2.2.1]hept-2-yl-{4-[(6,8-dichloro-2H-chromene-3-carbonyl)-amino]-benzyl}-dimethyl-ammonium iodide], for which the pIC50 was 5.70.

On to `Cc1cccc2c1OCC(C(=O)Nc1ccc(C[N+](C)(C)C3CCOCC3)cc1)=C2` [Cpd 112, dimethyl-{4-[(8-methyl-2H-chromene-3-carbonyl)-amino]-benzyl}-(tetrahydro-pyran-4-yl)-ammonium iodide], for which the pIC50 is 6.82.

For `Cc1cccc2c1OCC(C(=O)Nc1ccc(C[N+](C)(C)C3CCCCC3)cc1)=C2` [Cpd 113, cyclohexyl-dimethyl-{4-[(8-methyl-2H-chromene-3-carbonyl)-amino]-benzyl}-ammonium iodide], the pIC50 was 6.28.

On to `Cc1cc(Cl)cc2c1OCC(C(=O)Nc1ccc(C[N+](C)(C)C3CCCCC3)cc1)=C2` [Cpd 114, {4-[(6-chloro-8-methyl-2H-chromene-3-carbonyl)-amino]-benzyl}-cyclohexyl-dimethyl-ammonium iodide], for which the negative logarithm of the IC50 (pIC50) is 7.22.

As to `Cc1cc(Cl)cc2c1OCC(C(=O)Nc1ccc(C[N+](C)(C)C3CCOCC3)cc1)=C2` [Cpd 115, {4-[(6-chloro-8-methyl-2H-chromene-3-carbonyl)-amino]-benzyl}-dimethyl-(tetrahydro-pyran-4-yl)-ammonium iodide], the pIC50 was 7.30.

Take `C[N+](C)(Cc1ccc(NC(=O)C2=Cc3ccc(Cl)c(Cl)c3OC2)cc1)C1CCCCC1` [Cpd 116, cyclohexyl-{4-[(7,8-dichloro-2H-chromene-3-carbonyl)-amino]-benzyl}-dimethyl-ammonium iodide]: the pIC50 is 6.22.

As to `Cc1cc(Cl)cc2c1OCC(C(=O)Nc1ccc(C[N+](C)(C)C3CC4CCC3C4)cc1)=C2` (centres unmarked) [Cpd 117, bicyclo[2.2.1]hept-2-yl-{4-[(6-chloro-8-methyl-2H-chromene-3-carbonyl)-amino]-benzyl}-dimethyl-ammonium iodide], the pIC50 was 6.92.

On to `Cc1cc(Cl)cc2c1OCC(C(=O)Nc1ccc(C[N+](C)(C)C3CCCCCC3)cc1)=C2` [Cpd 118, {4-[(6-chloro-8-methyl-2H-chromene-3-carbonyl)-amino]-benzyl}-cycloheptyl-dimethyl-ammonium iodide], for which the pIC50 was 6.70.

With `Cc1cc(Cl)cc2c1OCC(C(=O)Nc1ccc(C[N+](C)(C)C3CCCC3)cc1)=C2` [Cpd 119, {4-[(6-chloro-8-methyl-2H-chromene-3-carbonyl)-amino]-benzyl}-cyclopentyl-dimethyl-ammonium iodide], the pIC50 was 7.00.

Take `Cc1cc(Cl)cc2c1OCC(C(=O)Nc1ccc(C[N+](C)(C)C3CCSC3)cc1)=C2` (centres unmarked) [Cpd 120, {4-[(6-chloro-8-methyl-2H-chromene-3-carbonyl)-amino]-benzyl}-dimethyl-(tetrahydro-thiophen-3-yl)-ammonium iodide]: the pIC50 was 7.52.

On to `Cc1cc(Cl)cc2c1OCC(C(=O)NCc1ccc(C[N+](C)(C)C3CCOCC3)cc1)=C2` [Cpd 121, (4-{[(6-chloro-8-methyl-2H-chromene-3-carbonyl)-amino]-methyl}-benzyl)-dimethyl-(tetrahydro-pyran-4-yl)-ammonium iodide], for which the inhibition at 25 µM worked out at 37%.

`C[N+](C)(Cc1ccc(NC(=O)C2=Cc3cc(Cl)cc(Cl)c3OC2)cc1)C1CCSC1` (centres unmarked) [Cpd 122, {4-[(6,8-dichloro-2H-chromene-3-carbonyl)-amino]-benzyl}-dimethyl-(tetrahydro-thiophen-3-yl)-ammonium iodide]: the pIC50 was 6.24.

Regarding `C[N+](C)(Cc1ccc(NC(=O)C2=Cc3cc(F)ccc3OC2)cc1)C1CCCCC1` [Cpd 123, cyclohexyl-{4-[(6-fluoro-2H-chromene-3-carbonyl)-amino]-benzyl}-dimethyl-ammonium iodide], the inhibition at 25 µM came out at 100%.

Turning to `C[N+](C)(Cc1ccc(NC(=O)C2=Cc3c(F)cccc3OC2)cc1)C1CCCCC1` [Cpd 124, cyclohexyl-{4-[(5-fluoro-2H-chromene-3-carbonyl)-amino]-benzyl}-dimethyl-ammonium iodide], the inhibition at 25 µM came out at 100%.
